Experiments:
[1] = biological target: Gamma-aminobutyric acid receptor subunit alpha-1 (Rattus norvegicus, UniProt P62813)
Adenosine receptor A1 = biological target: T1, Adenosine receptor A1 (Homo sapiens, UniProt P30542)
T1 sequence (P30542 whole entry): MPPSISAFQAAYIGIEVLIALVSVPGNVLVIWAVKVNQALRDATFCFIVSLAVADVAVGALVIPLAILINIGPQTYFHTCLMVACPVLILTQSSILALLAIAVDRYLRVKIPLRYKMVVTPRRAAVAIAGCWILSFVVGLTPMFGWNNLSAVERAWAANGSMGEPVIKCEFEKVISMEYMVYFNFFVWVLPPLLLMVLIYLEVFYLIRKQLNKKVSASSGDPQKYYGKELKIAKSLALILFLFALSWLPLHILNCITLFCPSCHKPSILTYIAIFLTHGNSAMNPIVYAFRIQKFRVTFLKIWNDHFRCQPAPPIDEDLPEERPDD

Adenosine receptor A3 = biological target: T2, Adenosine receptor A3 (Homo sapiens, UniProt P0DMS8)
T2 sequence (P0DMS8 whole entry): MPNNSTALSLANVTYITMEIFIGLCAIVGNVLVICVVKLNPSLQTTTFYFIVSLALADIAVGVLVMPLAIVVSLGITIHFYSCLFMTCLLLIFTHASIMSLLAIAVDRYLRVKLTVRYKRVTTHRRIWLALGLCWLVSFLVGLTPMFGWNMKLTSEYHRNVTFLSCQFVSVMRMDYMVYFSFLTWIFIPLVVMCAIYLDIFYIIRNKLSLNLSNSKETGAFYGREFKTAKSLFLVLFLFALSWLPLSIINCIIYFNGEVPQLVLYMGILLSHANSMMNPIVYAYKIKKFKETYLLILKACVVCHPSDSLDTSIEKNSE

[2] = biological target: T3, Neuropeptide Y receptor type 1 (Homo sapiens, UniProt P25929)
T3 sequence (P25929 whole entry): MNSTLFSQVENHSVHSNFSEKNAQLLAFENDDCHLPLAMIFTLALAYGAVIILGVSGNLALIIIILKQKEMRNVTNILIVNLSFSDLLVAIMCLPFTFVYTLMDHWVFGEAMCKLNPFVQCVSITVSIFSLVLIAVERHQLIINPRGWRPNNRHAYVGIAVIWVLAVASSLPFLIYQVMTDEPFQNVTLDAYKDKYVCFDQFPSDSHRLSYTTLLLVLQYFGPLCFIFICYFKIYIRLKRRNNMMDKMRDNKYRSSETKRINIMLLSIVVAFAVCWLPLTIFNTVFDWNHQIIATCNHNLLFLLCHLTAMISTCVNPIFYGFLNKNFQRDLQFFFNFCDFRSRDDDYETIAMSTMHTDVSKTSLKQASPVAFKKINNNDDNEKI

[3] = biological target: T4, Type-1 angiotensin II receptor (Homo sapiens, UniProt P30556)
T4 sequence (P30556 whole entry): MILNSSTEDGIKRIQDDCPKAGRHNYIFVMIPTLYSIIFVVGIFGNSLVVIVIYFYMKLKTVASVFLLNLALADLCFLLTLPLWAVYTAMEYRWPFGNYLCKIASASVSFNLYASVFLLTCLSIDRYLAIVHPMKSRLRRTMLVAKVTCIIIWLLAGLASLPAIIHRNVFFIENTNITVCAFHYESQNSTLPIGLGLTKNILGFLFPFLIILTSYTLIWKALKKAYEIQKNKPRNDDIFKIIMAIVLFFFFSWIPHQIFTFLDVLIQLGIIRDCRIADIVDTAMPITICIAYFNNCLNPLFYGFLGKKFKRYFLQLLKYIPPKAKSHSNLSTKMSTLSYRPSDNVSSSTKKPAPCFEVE

[4] = biological target: T5, Cholecystokinin receptor type A (Homo sapiens, UniProt P32238)
T5 sequence (P32238 whole entry): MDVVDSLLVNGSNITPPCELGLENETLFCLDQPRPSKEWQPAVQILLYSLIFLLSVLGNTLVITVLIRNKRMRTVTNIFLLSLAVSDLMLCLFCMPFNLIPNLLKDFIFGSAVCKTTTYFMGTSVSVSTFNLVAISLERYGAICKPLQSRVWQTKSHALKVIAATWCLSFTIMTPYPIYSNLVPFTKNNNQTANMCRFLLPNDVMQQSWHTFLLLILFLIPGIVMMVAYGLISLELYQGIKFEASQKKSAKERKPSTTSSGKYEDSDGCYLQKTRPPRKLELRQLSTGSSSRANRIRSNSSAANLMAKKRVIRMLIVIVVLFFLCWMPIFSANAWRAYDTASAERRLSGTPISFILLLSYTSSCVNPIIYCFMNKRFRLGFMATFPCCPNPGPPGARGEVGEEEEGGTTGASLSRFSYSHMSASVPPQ

Adenosine receptor A2a = Adenosine receptor A2a (Homo sapiens, UniProt P29274)
Chain of Adenosine receptor A2a (P29274 whole entry): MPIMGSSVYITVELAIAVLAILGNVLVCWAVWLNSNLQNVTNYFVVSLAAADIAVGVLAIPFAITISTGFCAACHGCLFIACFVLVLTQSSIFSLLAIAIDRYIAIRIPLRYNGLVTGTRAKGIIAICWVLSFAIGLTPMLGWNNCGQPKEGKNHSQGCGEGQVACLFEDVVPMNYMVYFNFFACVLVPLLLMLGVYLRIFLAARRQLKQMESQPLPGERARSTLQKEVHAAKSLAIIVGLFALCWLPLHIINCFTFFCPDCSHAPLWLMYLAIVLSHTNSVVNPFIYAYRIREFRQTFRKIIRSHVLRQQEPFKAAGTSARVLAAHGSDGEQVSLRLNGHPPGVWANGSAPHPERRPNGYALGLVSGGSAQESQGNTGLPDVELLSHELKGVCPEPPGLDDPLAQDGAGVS

[5] = biological target: T6, Alpha-2C adrenergic receptor (Homo sapiens, UniProt P18825); type: functional
T6 sequence (P18825 whole entry): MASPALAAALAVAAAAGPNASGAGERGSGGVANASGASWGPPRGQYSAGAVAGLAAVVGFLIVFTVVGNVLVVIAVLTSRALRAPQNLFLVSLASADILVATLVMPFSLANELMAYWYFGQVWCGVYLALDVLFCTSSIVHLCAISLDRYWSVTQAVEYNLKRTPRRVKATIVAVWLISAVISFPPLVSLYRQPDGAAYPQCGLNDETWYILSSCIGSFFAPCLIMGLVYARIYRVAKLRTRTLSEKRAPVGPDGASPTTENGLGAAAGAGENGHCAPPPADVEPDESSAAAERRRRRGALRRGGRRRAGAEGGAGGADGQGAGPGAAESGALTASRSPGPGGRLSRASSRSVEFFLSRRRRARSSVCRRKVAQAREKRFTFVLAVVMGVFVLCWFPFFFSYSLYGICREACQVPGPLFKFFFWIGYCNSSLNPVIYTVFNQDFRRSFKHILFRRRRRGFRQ

[6] = biological target: T7, Alpha-2B adrenergic receptor (Homo sapiens, UniProt P18089)
T7 sequence (P18089 whole entry): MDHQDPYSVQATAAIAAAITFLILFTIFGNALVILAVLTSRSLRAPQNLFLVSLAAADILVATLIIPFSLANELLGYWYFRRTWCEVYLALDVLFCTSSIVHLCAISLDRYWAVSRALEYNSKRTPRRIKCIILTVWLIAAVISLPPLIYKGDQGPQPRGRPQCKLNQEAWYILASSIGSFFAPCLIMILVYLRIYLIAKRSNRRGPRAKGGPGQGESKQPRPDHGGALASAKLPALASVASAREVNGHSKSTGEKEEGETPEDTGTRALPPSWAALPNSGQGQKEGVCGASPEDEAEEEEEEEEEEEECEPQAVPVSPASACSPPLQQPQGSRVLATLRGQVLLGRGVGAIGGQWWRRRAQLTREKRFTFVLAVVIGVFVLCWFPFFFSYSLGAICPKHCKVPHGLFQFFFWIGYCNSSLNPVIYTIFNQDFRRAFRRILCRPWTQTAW
Note: assay procedure not described here.

Chain of Gamma-aminobutyric acid receptor subunit alpha-1 (P62813 whole entry): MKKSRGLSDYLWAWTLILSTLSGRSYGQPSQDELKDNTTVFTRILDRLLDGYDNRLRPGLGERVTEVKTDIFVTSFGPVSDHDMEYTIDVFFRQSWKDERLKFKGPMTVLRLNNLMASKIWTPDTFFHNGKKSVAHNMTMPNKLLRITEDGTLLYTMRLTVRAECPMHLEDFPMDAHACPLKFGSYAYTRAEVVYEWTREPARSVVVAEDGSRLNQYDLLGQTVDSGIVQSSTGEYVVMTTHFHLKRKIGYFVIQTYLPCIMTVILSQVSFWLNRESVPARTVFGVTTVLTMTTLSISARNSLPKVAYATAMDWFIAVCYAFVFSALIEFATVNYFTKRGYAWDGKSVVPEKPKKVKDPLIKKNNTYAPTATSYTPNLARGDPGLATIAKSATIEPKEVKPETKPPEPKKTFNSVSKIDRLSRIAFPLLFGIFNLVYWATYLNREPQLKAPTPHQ

AC50 [1] [µM]	AC50 (Adenosine receptor A1) [µM]	AC50 (Adenosine receptor A3) [µM]	AC50 [2] [µM]	AC50 [3] [µM]	AC50 [4] [µM]	AC50 (Adenosine receptor A2a) [µM]	AC50 [5] [µM]	AC50 [6] [µM]	Compound
> 30	> 30	> 30	> 30	> 30	> 30	> 30	> 30	> 30	CC1=C(/C=C/C(C)=C/C=C/C(C)=C/C(=O)Oc2c(C)c(C)c3c(c2C)CCC(C)(CCCC(C)CCCC(C)CCCC(C)C)O3)C(C)(C)CCC1 (stereo unspecified) [TRETINOIN TOCOFERIL]
> 30	> 30	> 30	> 30	> 30	> 30	> 30	> 30	> 30	CCCCCCCC(=O)CC[C@@H]1[C@@H](C/C=C\CCCC(=O)O)[C@@H](O)C[C@H]1O [UNOPROSTONE]
> 30	> 30	> 30	> 30	> 30	> 30	> 30	> 30	> 30	OCC(CO)N[C@H]1C[C@](O)(CO)[C@@H](O)[C@H](O)[C@H]1O [VOGLIBOSE]
> 30	> 30	> 30	> 30	> 30	> 30	> 30	> 30	> 30	SITOSTEROLS

— ChEMBL document CHEMBL5291721, “A preclinical secondary pharmacology resource illuminates target-adverse drug reaction associations of marketed drugs” (Nat Commun, 2023)
